Experimental data published in ChEMBL document CHEMBL5550186, “Exploring the Potential of Cyclic Peptidyl Antitumor Agents Derived from Natural Macrocyclic Peptide Phakellistatin 13” (J Med Chem, 2024).
Activity calls are given as the source filed them. No cut-off for these calls is given here.

Experiments:
[1] = target: Voltage-gated inwardly rectifying potassium channel KCNH2 (Homo sapiens, UniProt Q12809); test: Inhibition of human ERG; format: toxicity
[2] = system: HepG2; test: Induction of apoptosis in human HepG2 cells assessed as viable cells at 20 uM incubated for 48 hrs by annexin V-FITC/PI staining based flow cytometry analysis (reference value: 99.3%); format: functional; conditions: read-out: Activity
[3] = Upregulation of FGF21 expression level in human HepG2 cells assessed as fold change by KEGG enrichment analysis; format: functional
[4] = Toxicity in Balb/c mouse assessed as effect on heart at 6 mg/kg, iv measured after 14 days by H and E staining based analysis; format: organism-based; conditions: in vivo, 336 h, time 14 day
[5] = system: HepG2; test: Induction of cell cycle arrest in human HepG2 cells assessed as accumulation of cells at S phase at 10 uM incubated for 48 hrs by PI staining based flow cytometry analysis (reference value: 39.6%); format: functional
[6] = system: HepG2; test: Induction of cell cycle arrest in human HepG2 cells assessed as accumulation of cells at <2N phase at 10 uM incubated for 48 hrs by PI staining based flow cytometry analysis (reference value: 0.027%); format: functional
[7] = Mutagenicity in Salmonella typhimurium by Ames test; format: toxicity; conditions: salmonella enterica subsp. enterica serovar typhimurium
[8] = system: HepG2; test: Induction of cell cycle arrest in human HepG2 cells assessed as accumulation of cells at G2/M phase at 10 uM incubated for 24 hrs by PI staining based flow cytometry analysis (reference value: 6.38%); format: functional
[9] = Apparent permeability of compound; format: ADME; conditions: not told
[10] = system: HepG2; test: Induction of morphological changes in human HepG2 cells assessed as cell shrinkage at 40 uM measured after 12 to 24 hrs by fluorescence inverted microscopic analysis; format: functional, cell-based; conditions: time 12-24 hrs
[11] = […] of CCND1 expression level in human HepG2 cells assessed as fold change by KEGG enrichment analysis; format: functional
[12] = system: HepG2; test: Induction of cell cycle arrest in human HepG2 cells assessed as accumulation of cells at G2/M phase at 5 uM incubated for 48 hrs by PI staining based flow cytometry analysis (reference value: 6.38%); format: functional
[13] = Toxicity in Balb/c mouse assessed as effect on lung at 6 mg/kg, iv measured after 14 days by H and E staining based analysis; format: organism-based; conditions: in vivo, 336 h, time 14 day
[14] = system: HepG2; test: Induction of cell cycle arrest in human HepG2 cells assessed as accumulation of cells at 2N phase at 10 uM incubated for 24 hrs by PI staining based flow cytometry analysis (reference value: 26.0%); format: functional
[15] = system: HepG2; test: Induction of apoptosis in human HepG2 cells assessed as late apoptotic cells at 5 uM incubated for 48 hrs by annexin V-FITC/PI staining based flow cytometry analysis (reference value: 0.16%); format: functional
[16] = system: HepG2; test: Induction of cell cycle arrest in human HepG2 cells assessed as accumulation of cells at G2/M phase at 20 uM incubated for 48 hrs by PI staining based flow cytometry analysis (reference value: 6.38%); format: functional
[17] = system: HepG2; test: Induction of apoptosis in human HepG2 cells assessed as viable cells at 5 uM incubated for 48 hrs by annexin V-FITC/PI staining based flow cytometry analysis (reference value: 99.3%); format: functional; conditions: read-out: Activity
[18] = system: HepG2; test: Induction of cell cycle arrest in human HepG2 cells assessed as accumulation of cells at G2/M phase at 10 uM incubated for 48 hrs by PI staining based flow cytometry analysis (reference value: 6.38%); format: functional
[19] = Upregulation of ATF4 expression level in human HepG2 cells assessed as fold change by KEGG enrichment analysis; format: functional
[20] = system: HepG2; test: Induction of morphological changes in human HepG2 cells assessed as appearance of round morphology at 40 uM measured after 12 to 24 hrs by fluorescence inverted microscopic analysis; format: functional, cell-based; conditions: time 12-24 hrs
[21] = Toxicity in Balb/c mouse assessed as effect on kidney at 6 mg/kg, iv measured after 14 days by H and E staining based analysis; format: organism-based; conditions: in vivo, 336 h, time 14 day
[22] = Upregulation of SESN2 expression level in human HepG2 cells assessed as fold change by KEGG enrichment analysis; format: functional
[23] = system: Cell membrane; test: Induction of mitochondrial membrane potential loss in human HepG2 cells assessed as decrease in fluorescence at 10 uM measured after 24 hrs by Rhodamine 123 staining based flow cytometry (reference value: 66.8%); format: cell membranes; design: scale not given: the % may be the effect or the level left
[24] = system: HepG2; test: Downregulation of MDM2 level in human HepG2 cells at 5 to 20 uM measured after 48 hrs by Western blot analysis; format: functional, cell-based; conditions: dose 5-20 µM
[25] = Upregulation of IL1A expression level in human HepG2 cells assessed as fold change by KEGG enrichment analysis; format: functional
[26] = system: HepG2; test: Induction of cell cycle arrest in human HepG2 cells assessed as assessed as accumulation of cells at S phase at 10 uM incubated for 12 hrs by PI staining based flow cytometry analysis (reference value: 39.6%); format: functional
[27] = system: HepG2; test: Induction of cell cycle arrest in human HepG2 cells assessed as accumulation of cells at >G2/M phase at 20 uM incubated for 48 hrs by PI staining based flow cytometry analysis (reference value: 28.0%); format: functional
[28] = system: MDA-MB-231; test: Antiproliferative activity against human MDA-MB-231 cells incubated for 48 hrs by MTT assay; format: functional, cell-based; conditions: MDA-MB-231, 48 h
[29] = system: HepG2; test: Induction of cell cycle arrest in human HepG2 cells assessed as accumulation of cells at >G2/M phase at 10 uM incubated for 24 hrs by PI staining based flow cytometry analysis (reference value: 28.0%); format: functional
[30] = Upregulation of PGF expression level in human HepG2 cells assessed as fold change by KEGG enrichment analysis; format: functional
[31] = system: HepG2; test: Induction of apoptosis in human HepG2 cells assessed as necrotic cells at 20 uM incubated for 48 hrs by annexin V-FITC/PI staining based flow cytometry analysis (reference value: 0%); format: functional
[32] = system: HeLa; test: Antiproliferative activity against human HeLa cells incubated for 48 hrs by MTT assay; format: functional, cell-based
[33] = system: HepG2; test: Induction of cell cycle arrest in human HepG2 cells assessed as accumulation of cells at <2N phase at 20 uM incubated for 48 hrs by PI staining based flow cytometry analysis (reference value: 0.027%); format: functional
[34] = Toxicity in Balb/c mouse assessed as effect on body weight at 6 mg/kg, iv measured every two days for 14 days; format: organism-based; conditions: in vivo, 336 h, time 14 day
[35] = system: 4T1; test: Antiproliferative activity against mouse 4T1 cells incubated for 48 hrs by MTT assay; format: functional, cell-based; conditions: 4T1, 48 h
[36] = system: HepG2; test: Induction of cell cycle arrest in human HepG2 cells assessed as accumulation of cells at <2N phase at 5 uM incubated for 48 hrs by PI staining based flow cytometry analysis (reference value: 0.027%); format: functional
[37] = system: HepG2; test: Induction of cell cycle arrest in human HepG2 cells assessed as accumulation of cells at <2N phase at 10 uM incubated for 24 hrs by PI staining based flow cytometry analysis (reference value: 0.027%); format: functional
[38] = Downregulation of RSPO3 expression level in human HepG2 cells assessed as fold change by KEGG enrichment analysis; format: functional
[39] = Toxicity in Balb/c mouse assessed as effect on spleen at 6 mg/kg, iv measured after 14 days by H and E staining based analysis; format: organism-based; conditions: in vivo, 336 h, time 14 day

Sequence of Voltage-gated inwardly rectifying potassium channel KCNH2 (Q12809 whole entry): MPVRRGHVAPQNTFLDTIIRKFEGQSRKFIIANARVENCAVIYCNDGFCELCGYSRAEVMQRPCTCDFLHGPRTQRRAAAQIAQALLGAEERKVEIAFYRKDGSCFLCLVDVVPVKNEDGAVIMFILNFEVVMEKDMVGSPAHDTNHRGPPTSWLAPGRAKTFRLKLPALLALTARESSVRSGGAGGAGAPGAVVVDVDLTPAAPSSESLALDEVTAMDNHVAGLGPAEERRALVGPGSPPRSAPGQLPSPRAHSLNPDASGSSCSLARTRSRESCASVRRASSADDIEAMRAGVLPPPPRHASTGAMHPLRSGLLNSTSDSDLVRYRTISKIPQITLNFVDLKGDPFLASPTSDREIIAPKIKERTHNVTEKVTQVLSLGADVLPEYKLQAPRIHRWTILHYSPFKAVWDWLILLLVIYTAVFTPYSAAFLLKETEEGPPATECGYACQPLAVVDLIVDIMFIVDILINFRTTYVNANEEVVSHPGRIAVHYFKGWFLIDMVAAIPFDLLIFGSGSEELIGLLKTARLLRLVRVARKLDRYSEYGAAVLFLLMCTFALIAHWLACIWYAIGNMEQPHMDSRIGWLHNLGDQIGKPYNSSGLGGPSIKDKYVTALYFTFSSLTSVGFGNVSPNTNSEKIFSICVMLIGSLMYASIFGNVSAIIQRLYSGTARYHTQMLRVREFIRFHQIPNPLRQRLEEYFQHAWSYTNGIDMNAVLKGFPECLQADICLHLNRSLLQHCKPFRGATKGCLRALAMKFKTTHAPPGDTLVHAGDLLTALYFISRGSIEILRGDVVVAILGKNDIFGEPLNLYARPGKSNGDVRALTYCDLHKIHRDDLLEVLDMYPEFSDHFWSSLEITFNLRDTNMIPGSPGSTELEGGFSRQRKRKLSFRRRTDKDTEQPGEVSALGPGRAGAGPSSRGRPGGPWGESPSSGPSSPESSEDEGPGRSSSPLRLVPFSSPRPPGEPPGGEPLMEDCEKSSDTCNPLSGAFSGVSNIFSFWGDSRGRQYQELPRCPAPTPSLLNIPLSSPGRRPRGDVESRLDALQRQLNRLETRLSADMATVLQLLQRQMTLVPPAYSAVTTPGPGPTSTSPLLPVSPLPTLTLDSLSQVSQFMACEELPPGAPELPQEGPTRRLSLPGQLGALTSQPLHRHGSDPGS

Papp [9]: 0.416 ×10⁻⁶ cm/s
Activity [23]: 45.4%
IC50 [28]: 12.8 µM
IC50 [32]: 16.9 µM
IC50 [35]: 38.5 µM
SMILES: CC(C)C[C@H]1NC(=O)[C@H]([C@@H](C)OCc2ccccc2)NC(=O)[C@H]2CCCN2C(=O)CN2C(=O)c3ccccc3[C@@]2(O)CN(Cc2ccccc2)C(=O)[C@H](Cc2ccccc2)NC(=O)[C@H]2CCCN2C(=O)[C@H](Cc2c[nH]c3ccccc23)NC1=O
inhibition (INH) [1]: Active
viability at 20 µM [2]: 52%
fold change (FC) [3]: 9.022
Activity [4]: Non-Toxic
Activity [5]: 23.3%
Activity [6]: 20.2%
Activity [7]: Non-Toxic
Activity [8]: 13%
Activity [10]: Active
fold change (FC) [11]: -1.18
Activity [12]: 18.9%
Activity [13]: Non-Toxic
Activity [14]: 23.3%
Activity [15]: 2.4%
Activity [16]: 37.1%
viability at 5 µM [17]: 80.8%
Activity [18]: 23%
fold change (FC) [19]: 1.43
Activity [20]: Active
Activity [21]: Non-Toxic
fold change (FC) [22]: 2.86
Activity [24]: Active
fold change (FC) [25]: 2.186
Activity [26]: 18.9%
Activity [27]: 1.12%
Activity [29]: 13.5%
fold change (FC) [30]: 2.135
Activity [31]: 0.02%
Activity [33]: 28.1%
Activity [34]: Non-Toxic
Activity [36]: 37.3%
Activity [37]: 35.9%
fold change (FC) [38]: -1.578
Activity [39]: Non-Toxic
